What was measured:
RLMVEC = test: KYC thiylation of endothelial cell proteins in RLMVEC cultures; type: cell-based, rat
Source text: FIG. 29. Effects of Oxidative Stress on KYC Thiylation of RLMVEC Proteins. (A) Streptavidin affinity blot of KYC thiylated proteins from cell lysates prepared from RLMVEC cultures treated with B-KYC (baseline), B-KYC+MPO+H2O2 (MPO-dependent), and B-KYC+H2O2 (H2O2-dependent). (B) Immunoblot for Nrf2 in RLMVEC cultures treated as described in A. (C) Immunoblot for Keap1 in RLMVEC cultures treated as described in A. (D) Immunoblot for HMGB1 in RLMVEC cultures treated as described in A.(E) Immunoblot for β-Actin in RLMVEC cultures treated as described in A.(F) Bar chart showing relative levels of KYC thiylation, Nrf2, Keap1, and HMGB1 as a function of β-Actin (n=2, *=p<0.05, statistical analysis was preformed by ANOVA with appropriate post hoc tests).
FIG. 31. MPO Oxidation of KYC Increases KYC Thiylation of Extracellular HMGB1. […] This conclusion is based on the relative levels of KYC thiylated HMGB1 in panel A vs. KYC thiylated HMGB1 as a function of HMGB1 protein in conditioned media vs. RLMVEC cell lysates.
Rat lung microvascular endothelial cells (RLMVEC) from neonatal Sprague-Dawley rats (RN-6011) and rat endothelial growth medium (EGM, M1266SF) were from Cell Biologics (Chicago, Ill.). Amicon®Ultra-4 centrifugal concentrators with 3K cut-off (UFC800324) were from Merck Millipore Ltd (Carrigtwohill, Ireland). PierceTM Streptavidin (#88816), Protein G (#88848), Protein A Magnetic Beads (#88845), PierceTM ECL Western Blotting Substrate (#32106), and SuperSignalTM West Femto Maximum Sensitivity Substrate (#34095) were from Thermo Fisher Scientific (Waltham, MA). Rabbit antibodies for myeloperoxidase heavy chain (MPO, sc-33596) and TLR4 (sc-10741) were from Santa Cruz Biotechnology (Dallas, Texas). Rabbit antibody for Cl-Tyr (HP5002) was from Hycult Biotech (Plymouth Meeting, PA). The chicken antibody for HMGB1 (326052233) was from SHINO-TEST Corporation (Kanagawa, Japan). Rabbit antibody for RAGE (GTX23611) was from GeneTex (Irvine, CA). Mouse antibodies for PECAM-1/CD31 (ab24590), for 8-OH-dG (ab48508), and for rat endothelial cell antigen-1 (RECA-1, ab9774) were from Abcam (Cambridge, MA). Rabbit antibody for Cox1 (sc-7950) and Cox2 (sc-7951) were from Santa Cruz Biotechnology. Mouse (ab190377) and rabbit (ab77302b) antibodies for HMGB1, and streptavidin-HRP (ab7403) were from Abcam (Cambridge, Mass.). Rabbit antibody for acetylated-HMGB1 (OASG03545) was from Aviva System Biology (San Diego, Calif.). Rabbit antibodies for Nrf2 (sc-722) and TLR4 (sc-30002) were from Santa Cruz Biotechnology (Dallas, Tex.). Rabbit antibody against Keap1 (ABS97) and mouse antibody for β-actin (A2228) were from Millipore-Sigma (St. Louis, Mo.). Rabbit antibody for cysteine sulfonyl (ADI-OSA-820) was from Enzo Life Sciences (Farmingdale, N.Y.). Mouse antibody for glutathionylated proteins (D8) and all other chemicals were from Sigma-Aldrich (St. Louis, Mo.). All antibodies were certified either by the manufacturer or were used previously and certified by the authors, as was the case for the anti-HMGB1 antibody.
Effects of Oxidative Stress on KYC Thiylation on Endothelial Cell Proteins in RLMVEC Cultures: To determine the effects of oxidative stress on KYC thiylation, RLMVEC cultures were treated with B-KYC to follow KYC thiylation with streptavidin-affinity blotting as outlined in Methods. Three different levels of oxidative stress were used to determine the effects of oxidative stress on KYC thiylation of endothelial cell proteins: media alone (baseline); media containing MPO+H2O2 (MPO-dependent); and media containing H2O2 alone (H2O2-dependent) (FIG. 29A). KYC thiylation of RLMVEC proteins at baseline was low (FIG. 29A, first two lanes).

HMGB1 = biological target: T1, HMGB1 (Homo sapiens, UniProt P09429); test: Streptavidin-affinity blot of B-KYC thiylated recombinant HMGB1 and MPO in MPO reaction mixture; type: biochemical; conditions: split sample, DTT 100 mM
T1 sequence (P09429 1-215): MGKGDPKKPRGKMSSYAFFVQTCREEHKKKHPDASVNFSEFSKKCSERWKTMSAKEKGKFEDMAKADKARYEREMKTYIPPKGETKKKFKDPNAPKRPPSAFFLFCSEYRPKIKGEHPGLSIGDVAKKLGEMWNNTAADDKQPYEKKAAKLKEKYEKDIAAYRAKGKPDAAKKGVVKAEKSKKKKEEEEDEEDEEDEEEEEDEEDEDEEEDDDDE
Description: FIG. 30. MPO Oxidizes KYC to a KYC Thiyl Radical That Thiylates HMGB1. (A) ESR spectrum of KYC thiyl S°-DMPO generated by an MPO reaction mixture containing MPO (120 nM), H2O2 (50 μM) and KYC (30 μM). (B) Streptavidin-affinity blot of KYC thiylated HMGB1 and MPO in a split sample, one half treated neat and other half treated with DTT (100 mM) to reduce disulfide bonds.
This spectrum is similar to the spectrum of DMPO-S◯-YC generated when the dipeptide YC was added to an MPO reaction mixture containing DMPO [34].
Previously we reported that KYC reduced MPO-dependent oxidative damage because KYC competes with native substrates, such as chloride and nitrite, that are oxidized to “toxic” oxidants. In 2013, we argued that KYC reduced MPO-dependent oxidative damage because the resultant KYC thiyl radical would autoscavenge to prevent radical propagation. […] To determine the radical mechanisms mediating MPO oxidation of KYC and KYC thiylation of HMGB1, we performed two experiments. In the first experiment, we trapped KYC thiyl radicals generated by MPO with DMPO (FIG. 30A), which confirms our conclusions in 2013 [27]. In the second experiment, we added recombinant HMGB1 to PBS containing MPO+H2O2+B-KYC and determined KYC thiylation by streptavidin affinity blotting. […]

MPO = biological target: T2, MPO (Homo sapiens, UniProt P05164); test: KYC/AA(n) peptide inhibition of MPO HOCl production (TMB assay) at varied pH; type: biochemical; conditions: regardless of pH
T2 sequence (P05164 49-745): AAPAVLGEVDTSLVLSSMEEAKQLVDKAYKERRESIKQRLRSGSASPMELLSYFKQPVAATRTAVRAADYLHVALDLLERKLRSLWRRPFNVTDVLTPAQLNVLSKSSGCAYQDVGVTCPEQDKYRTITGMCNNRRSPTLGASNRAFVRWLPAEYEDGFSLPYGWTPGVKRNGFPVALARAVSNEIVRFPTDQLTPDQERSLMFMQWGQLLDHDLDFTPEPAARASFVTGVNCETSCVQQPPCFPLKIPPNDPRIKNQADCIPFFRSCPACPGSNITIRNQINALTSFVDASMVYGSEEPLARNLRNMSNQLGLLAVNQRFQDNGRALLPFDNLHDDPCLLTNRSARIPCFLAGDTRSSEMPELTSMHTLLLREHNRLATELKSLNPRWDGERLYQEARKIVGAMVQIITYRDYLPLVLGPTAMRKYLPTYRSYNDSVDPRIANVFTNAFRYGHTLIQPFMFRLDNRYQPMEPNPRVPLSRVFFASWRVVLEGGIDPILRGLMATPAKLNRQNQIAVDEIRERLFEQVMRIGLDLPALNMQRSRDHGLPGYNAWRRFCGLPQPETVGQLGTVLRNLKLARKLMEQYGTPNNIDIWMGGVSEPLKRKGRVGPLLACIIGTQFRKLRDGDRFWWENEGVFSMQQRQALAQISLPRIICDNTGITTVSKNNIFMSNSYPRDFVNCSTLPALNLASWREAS
Source text: Small peptides of generic formula AA(n) (where AA represents different amino acids, and n can be 2-5) are both substrates and inhibitors of MPO (alternatively, inhibitors of EPO). These peptides are […] at the active site of MPO, which subsequently decreases the production of toxic oxidants that includes but not restricted to hypochlorous acid. All MPO activities (i.e., hypochlorous acid production) described herein were quantified by the 3,3′,5,5′-tetramethylbenzidine (TMB) assay. […] The free radical itself may act as an activated species, and is stable enough to react with proximal proteins, peptides, metabolites or small molecules to effect further change. The free radical is not limited to a single target, but may effect change multiple independent targets. In a non-limiting example, the free radical goes on to form a hetero- or homo dimer via an oxidized —S—S— disulfide (or di-Selenium) linkage. Finally, the more interactions between the peptide and active site of MPO that occurs the lower numerical IC50 value of the peptide inhibitor.
KYZ is […] in the presence of MPO, which subsequently decreases the production of hypochlorous acid. All MPO activities (i.e., hypochlorous acid production) were quantified by the 3,3′,5,5′-tetramethylbenzidine (TMB) assay. The tripeptide KXZ, requires amino acid #1 (AA1, K) to be a native amino acid or an artificial amino acid (aa) with a basic side-chain such as an amine functional group (e.g., Lysine (K)). Amino acid #2 (AA2, X) is a native or artificial amino acid that may contain a polar, non-polar, or aromatic amino acid.

Substance	KYC thiylation of RLMVEC proteins (RLMVEC; H2O2-dependent (media containing H2O2 alone))	KYC thiylation of RLMVEC proteins (RLMVEC; MPO-dependent (media containing MPO+H2O2))	KYC thiylation of RLMVEC proteins (RLMVEC; baseline (media alone))	fluorescent band density of B-KYC thiylated HMGB1 and MPO (HMGB1)	inhibitory properties (IC50) KVC versus KVVC (MPO)
biotin-aminohexanoyl-N-[Ahx]-KYC-amide [B-KYC]	more than observed at baseline, but not as high as MPO-dependent B-KYC thiylation	markedly increased	low	decreased in the sample treated with dithiothreitol	
Ac-KVVC-amide [N-acetylated, C-amidated AA(n) peptide, KVC with an added amino acid]					improvement of inhibitory properties

— patent publication US20220409692A1, “Systems Chemico-Pharmacology Drugs and Methods of Use” (The Medical College of Wisconsin, priority 2019, published 2022)
